Three compounds from US9597336B2, “Therapy for treatment of chronic degenerative brain diseases and nervous system injury” (THE REGENTS OF THE UNIVERSITY OF CALIFORNIA, priority 2004, dated 2017) can be followed below.

The subject of experiment [1] is Niemann Pick type-C mice. The experiment can be described thus: Allopregnanolone, T0901317 and their combination in NP-C mice: lifespan, rotorod. The conditions noted are these: for lifespan (mean): allopregnanolone 25 mg/kg s.c. single injection at P7, T0901317 50 mg/kg/day from day 18; for onset of symptoms: rotorod trials; for age at which loss of motor function begins: untreated begin at 35 days. It counts as in vivo, mouse. As to the method: (§1) The materials and methods used for the following experiments have been described in Griffin L. D., et al., Nature Medicine 10: 704-711 (2004). This reference is hereby incorporated by reference in its entirety.
Mice were given a single injection of allopregnanolone, prepared in 20% β-cyclodextrin in phosphate buffered saline, at a concentration of 25 mg/kg. The injection was on day 7 of life (P7, postnatal day 7). T0901317 treatment was started on day 18 (50 mg/kg/day) in chow. Efficacy was assessed by measuring body weight, and neurological symptoms, using a rotorod test. Efficacy was further assessed by measuring lifespan.
A general note: Falling from the rotarod earlier than controls is read as motor impairment.

Experiment [2] relates to Niemann Pick type-C mice. In words: Ganaxolone treatment of NP-C mice: lifespan, weight, locomotor skills. The class given is in vivo, mouse. As to the method:
as §1
Mice were given a single injection of ganaxolone, prepared in 20% β-cyclodextrin in phosphate buffered saline, at a concentration of 25 mg/kg. The injection was on day 7 of life (P7, postnatal day 7).
Efficacy of treatment was assessed by measuring body weight, neurological symptoms, using behavioral tests such as wire hang test, rope climbing test, walking on an mesh inclined plane, and walking on a horizontal surface, measuring coordination, use of all 4 limbs, posture, tail placement. Efficacy was also assessed by measuring lifespan. Results of these experiments are summarized below, and are shown graphically in FIG. 7.

Experiment [3] concerns cerebellar astrocytes from P3 cerebella. The experiment can be described thus: Neurotrophin secretion in cultured cerebellar astrocytes (ELISA). The class given is cell-based, mouse. The protocol: as §1
Pure cultures of cerebellar astrocytes from P3 cerebella were cultured for 1-3 days±10 nM allopregnanolone, and NGF was assayed every 24 hr by ELISA.

Experiment [4] deals with brain cytokines (TGFβ, IL1β). In words: Brain cytokine concentrations by ELISA in NP-C mice. It counts as in vivo, mouse. The following applies: adult NP-C mice treated at day 7, vs untreated NP-C mice. The protocol: as §1
(§2) Mice were again given a single injection of allopregnanolone, prepared in 20% β-cyclodextrin in phosphate buffered saline, at a concentration of 25 mg/kg. The injection was on day 7 of life (P7, postnatal day 7). Inflammation was measured by assessing the number of CD4^+ CD8^+, MAC1^+, and MHCII^+ cells, using immunocytochemistry. Concentrations of brain cytokines were also measured, using by enzyme linked immunoabsorbent (ELISA) assays.
In general terms: In an ELISA, binding on a coated surface is turned into a signal by an enzyme label.

In experiment [5] the test system is CD4+, CD8+, MAC1+ and MHCII+ cells in brain. The experiment can be described thus: Immunocytochemistry of inflammatory cells in brains of NP-C mice. The class given is in vivo, mouse. The protocol: as §1, §2
Experiment [6] relates to gangliosides GM1, GM2, and GM3 in the brain. The experiment can be described thus: Ganglioside accumulation in brain of allopregnanolone-treated Niemann Pick type-C mice. The class given is in vivo, mouse. The protocol: as §1
Mice were given a single injection of allopregnanolone, prepared in 20% βcyclodextrin in phosphate buffered saline, at a concentration of 25 mg/kg. The injection was on day 7 of life (P7, postnatal day 7). Concentrations of gangliosides GM1, GM2, GM3, were measured as well as other lipids such as ceramides and cerebrosides.

Setting [7] is: adult (60-day old) NP-C mice treated at P7.

Entries after “also recorded” stand apart in the source; their conditions may differ.

As to `O=S(=O)(c1ccccc1)N(CC(F)(F)F)c1ccc(C(O)(C(F)(F)F)C(F)(F)F)cc1` [T0901317], in the experiment with Niemann Pick type-C mice [1], the “lifespan (mean)” value is 80 days and the onset of symptoms entry is on record as “delayed”. For the same compound, in the experiment with Niemann Pick type-C mice [1] (rotorod), the “course of loss of motor function / decline in symptoms” value is reported as “blunted” and the “age at which loss of motor function begins” value is on record as 42 days.
As to `CC(=O)[C@H]1CC[C@H]2[C@@H]3CC[C@H]4C[C@](C)(O)CC[C@]4(C)[C@H]3CC[C@]12C` [ganaxolone], in the experiment with Niemann Pick type-C mice [2], the “weight loss and tremor” value is “delays”. Besides, in the experiment with Niemann Pick type-C mice [2] (single injection 25 mg/kg at P7, untreated 67 (±10) days), the “lifespan (average)” value is reported as 118 days. Also, the “duration of the loss of motor function” value with Niemann Pick type-C mice [2] (single injection at P7, untreated 3-4 weeks) is 5 weeks. Further, the “age at which loss of motor function (locomotion and coordination) begins” value in the experiment on Niemann Pick type-C mice [2] (single injection at P7, untreated begin at 6-7 weeks) is on record as 10 weeks. In addition, the “age at which weight loss begins” value in the experiment on Niemann Pick type-C mice [2] (single injection at P7, untreated begin at 6 weeks) is 10 weeks. The “rate of weight loss” value in the experiment with Niemann Pick type-C mice [2] (single injection at P7, vs untreated NP-C mice) is on record as “more slowly”.
Turning to `CC(=O)[C@H]1CC[C@H]2[C@@H]3CC[C@H]4C[C@H](O)CC[C@]4(C)[C@H]3CC[C@]12C` [allopregnanolone], the “production of NGF” value in experiment [3] (NP-C mouse cerebellar astrocytes cultured 1-3 days with 10 nM, vs untreated control cells) is “increases”. Moreover, the “concentrations of the neurotrophins NGF and BDNF” value in experiment [3] (cerebellar cells in culture) is reported as “increases”. Besides, the “brain cytokine concentrations (TGFβ and IL1β)” value in experiment [4] is “substantial reduction; also recorded: substantially reduced”. The “apoptotic neurons in the brain” value in experiment [5] (NP-C mice, 25 mg/kg single injection at P7) was “substantial reduction”. For the same compound, the “number of T cells and activated macrophages in brain” value in experiment [5] (NP-C mice, 25 mg/kg single injection at P7, vs untreated controls) is on record as “significant reduction”. Also, in experiment [5] (setting [7]), the “increase in immunostaining for CD4 and CD8 T cells, cerebellum” value is listed as “absent”; the “increase in immunostaining for CD4 and CD8 T cells, thalamus/hypothalamus” value is reported as “absent”. In addition, the “immunostaining for MAC1 and MHC II (activated macrophages), thalamus” value in experiment [5] (adult (60-day old) NP-C mice treated at day 7, vs untreated NP-C mice) was “substantially reduced”. In the experiment with Niemann Pick type-C mice [1], the “lifespan (mean)” value was determined as 112 days and the onset of symptoms result is on record as “delayed”. In addition, the “age at which loss of motor function begins” value in the experiment with Niemann Pick type-C mice [1] (rotorod) amounted to 49 days. Moreover, the “amount of the gangliosides GM1, GM2, and GM3 in brain” value in experiment [6] (NP-C mice, single injection 25 mg/kg at P7, compared with untreated controls) was “reduced”. Moreover, the “degree of reduction in the gangliosides by timing of treatment” value in experiment [6] (NP-C mice, treatment at postnatal day 7 compared with postnatal day 10) was “greater reduction”. For the same compound, in experiment [6] (setting [7]), the “GM1 or GM2 immunostaining, cerebellum” value is listed as “only slight immunostaining” and the “GM1 or GM2 immunostaining, thalamus/hypothalamus” value is reported as “only very slight immunostaining”.
